Measured values reported in patent US9963456B2, “Pyrrolopyrimidine compound or salt thereof and compositions containing the pyrrolopyrimidine compound or salt thereof” (TAIHO PHARMACEUTICAL CO., LTD., priority 2014, dated 2018).

Target: NAE (heterodimer of APPBP1 and UBA3) (Homo sapiens (Human), UniProt Q8TBC4)
Assay: Nedd8 conjugation inhibitory activity (AlphaScreen assay)
Format: biochemical
Settings: purified NAE, GST-UBC12, Biotin-Nedd8, ATP

NAE (heterodimer of APPBP1 and UBA3), sequence (Q8TBC4 whole entry): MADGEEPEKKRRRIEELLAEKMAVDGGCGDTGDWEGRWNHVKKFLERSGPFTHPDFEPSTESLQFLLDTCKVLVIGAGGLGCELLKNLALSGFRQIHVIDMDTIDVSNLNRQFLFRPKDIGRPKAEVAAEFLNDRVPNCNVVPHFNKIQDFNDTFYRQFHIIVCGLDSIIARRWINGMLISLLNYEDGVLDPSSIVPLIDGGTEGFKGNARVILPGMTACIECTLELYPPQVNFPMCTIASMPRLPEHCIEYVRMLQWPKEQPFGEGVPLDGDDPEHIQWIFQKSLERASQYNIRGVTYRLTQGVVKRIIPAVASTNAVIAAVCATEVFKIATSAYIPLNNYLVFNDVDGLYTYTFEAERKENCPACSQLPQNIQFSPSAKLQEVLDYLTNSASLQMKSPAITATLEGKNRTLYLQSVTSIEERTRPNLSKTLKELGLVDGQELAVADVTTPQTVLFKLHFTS
NAE (heterodimer of APPBP1 and UBA3), sequence (Q13564 whole entry partner): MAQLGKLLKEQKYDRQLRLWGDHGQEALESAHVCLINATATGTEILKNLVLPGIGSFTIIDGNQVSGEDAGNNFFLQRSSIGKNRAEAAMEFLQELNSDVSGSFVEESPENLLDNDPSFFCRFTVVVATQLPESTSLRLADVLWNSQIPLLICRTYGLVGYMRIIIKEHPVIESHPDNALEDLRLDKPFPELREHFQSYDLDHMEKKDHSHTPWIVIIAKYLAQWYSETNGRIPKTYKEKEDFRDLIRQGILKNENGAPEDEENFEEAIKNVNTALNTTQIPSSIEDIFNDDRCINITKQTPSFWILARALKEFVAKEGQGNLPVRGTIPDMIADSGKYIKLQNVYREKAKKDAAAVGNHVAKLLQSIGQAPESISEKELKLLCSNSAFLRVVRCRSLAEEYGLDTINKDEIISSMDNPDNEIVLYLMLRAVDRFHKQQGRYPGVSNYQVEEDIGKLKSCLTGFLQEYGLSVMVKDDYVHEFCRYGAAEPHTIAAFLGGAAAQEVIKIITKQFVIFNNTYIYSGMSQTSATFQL

Row | Compound | IC50
1 | CCOc1cc(N2CCCCC2)cc(F)c1C#Cc1cn([C@@H]2C[C@H](CNS(N)(=O)=O)[C@@H](O)[C@H]2O)c2ncnc(N)c12 [Example 106, 4-Amino-7-[(1R,2S,3R,4R)-2,3-dihydroxy-4-[(sulfamoylamino)methyl]cyclopentyl]-5-[2-[2-ethoxy-6-fluoro-4-(1-piperidyl)phenyl]ethynyl]pyrrolo[2,3-d]pyrimidine] | 0.028 µM
2 | CCOc1cc(N2C3CCC2COC3)cc(F)c1C#Cc1cn([C@@H]2C[C@H](CNS(N)(=O)=O)[C@@H](O)[C@H]2O)c2ncnc(N)c12 [Example 110, 8-[4-[2-[4-Amino-7-[(1R,2S,3R,4R)-2,3-dihydroxy-4-[(sulfamoylamino)methyl]cyclopentyl]pyrrolo[2,3-d]pyrimidin-5-yl]ethynyl]-3-ethoxy-5-fluoro-phenyl]-3-oxa-8-azabicyclo[3,2,1]octane] | 0.013 µM
3 | CCOc1cc(N2CCOCC2)cc(F)c1C#Cc1cn([C@@H]2C[C@H](CNS(N)(=O)=O)[C@@H](O)[C@H]2O)c2ncnc(N)c12 [Example 112, 4-[4-[2-[4-Amino-7-[(1R,2S,3R,4R)-2,3-dihydroxy-4-[(sulfamoylamino)methyl]cyclopentyl]pyrrolo[2,3-d]pyrimidin-5-yl]ethynyl]-3-ethoxy-5-fluoro-phenyl]morpholine] | 0.015 µM
4 | Nc1ncnc2c1c(C#Cc1c(F)cc(N3CC[C@@H](F)C3)cc1F)cn2[C@@H]1C[C@H](CNS(N)(=O)=O)[C@@H](O)[C@H]1O [Example 115, 4-Amino-5-[2-[2,6-difluoro-4-[(3R)-3-fluoropyrrolidin-1-yl]phenyl]ethynyl]-7-[(1R,2S,3R,4R)-2,3-dihydroxy-4-[(sulfamoylamino)methyl]cyclopentyl]pyrrolo[2,3-d]pyrimidine] | 0.004 µM
5 | Nc1ncnc2c1c(C#Cc1cccc3c1S(=O)(=O)CC3)cn2[C@@H]1C[C@H](CNS(N)(=O)=O)[C@@H](O)[C@H]1O [Example 117, 4-Amino-7-[(1R,2S,3R,4R)-2,3-dihydroxy-4-[(sulfamoylamino)methyl]cyclopentyl]-5-[2-(1,1-dioxo-2,3-dihydrobenzothiophen-7-yl)ethynyl]pyrrolo[2,3-d]pyrimidine] | 0.0043 µM
6 | Nc1ncnc2c1c(C#Cc1c(F)cc(N3CCC3)cc1F)cn2[C@@H]1C[C@H](CNS(N)(=O)=O)[C@@H](O)[C@H]1O [Example 118, 4-Amino-5-[2-[4-(azetidin-1-yl)-2,6-difluoro-phenyl]ethynyl]-7-[(1R,2S,3R,4R)-2,3-dihydroxy-4-[(sulfamoylamino)methyl]cyclopentyl]pyrrolo[2,3-d]pyrimidine] | 0.0068 µM
7 | Nc1ncnc2c1c(C#Cc1c(F)cc(N3CCC(O)CC3)cc1F)cn2[C@@H]1C[C@H](CNS(N)(=O)=O)[C@@H](O)[C@H]1O [Example 119, 4-Amino-5-[2-[2,6-difluoro-4-(4-hydroxy-1-piperidyl)phenyl]ethynyl]-7-[(1R,2S,3R,4R)-2,3-dihydroxy-4-[(sulfamoylamino)methyl]cyclopentyl]pyrrolo[2,3-d]pyrimidine] | 0.0042 µM
8 | Nc1ncnc2c1c(C#Cc1cccc3c1S(=O)(=O)CCC3)cn2[C@@H]1C[C@H](CNS(N)(=O)=O)[C@@H](O)[C@H]1O [Example 123, 4-Amino-7-[(1R,2S,3R,4R)-2,3-dihydroxy-4-[(sulfamoylamino)methyl]cyclopentyl]-5-[2-(1,1-dioxo-3,4-dihydro-2H-thiochromen-8-yl)ethynyl]pyrrolo[2,3-d]pyrimidine] | 0.0091 µM
9 | CCOc1cccc(F)c1C#Cc1cn([C@H]2C[C@H](O)[C@@H](CNS(N)(=O)=O)O2)c2ncnc(N)c12 [Example 127, 4-Amino-5-[2-(2-ethoxy-6-fluoro-phenyl)ethynyl]-7-[(2R,4S,5R)-4-hydroxy-5-[(sulfamoylamino)methyl]tetrahydrofuran-2-yl]pyrrolo[2,3-d]pyrimidine] | 0.019 µM
